Measured values reported in publication PMC7932537, “Quantitative profiling of protease specificity” (PLoS Computational Biology, 2021).

What was measured:
[1] = test system: MMP-2; assay: Substrate phage display with NGS: relative probability (RP) of P3-P1' tetramer clusters; type: biochemical, human; settings: for relative probability (RP) of matching tetramer: P3-P1' tetramer matching the MS detected MMP2 cleavage sequence, RP_above_4.5; for normalized RP - MMP2: normalized RP of matching tetramer; for MMP2 relative probability (RP): MMP2 tetramers from unique substrates, unrounded values
[2] = test system: MMP-9; assay: as above; type: biochemical, human; settings: for normalized RP - MMP9: normalized RP of matching tetramer; for corresponding MMP9 relative probability (RP): MMP2 tetramers from unique substrates, RP of same tetramer for MMP9
[3] = RP of matching tetramer, unique part of MMP2 selectome, RP above KL threshold
[4] = RP of matching tetramer, unique part of MMP2 selectome
[5] = RP of the P3-P1' tetramer cluster contained in the hexamer, 200 nM MMP-2, 2 h, 37°C, two rounds of selection
[6] = MMP9, RP of the P3-P1' tetramer contained in the hexamer substrate (substrate phage display, NGS)
[7] = RP according to MMP2, P3-P1' tetramer of unique physiologic MMP2 substrates from MEROPS
[8] = RP of the P3-P1' tetramer, MMP2 substrate phage display/NGS, tetramers of physiologic MEROPS substrates common to MMP2 and MMP9
[9] = RP of the P3-P1' tetramer, MMP9 substrate phage display/NGS, tetramers of physiologic MEROPS substrates common to MMP2 and MMP9
[10] = RP of matching tetramer, common MMP2-9 selectome
[11] = MMP9, RP of the P3-P1' tetramer matching the MS detected cleavage, RP above 4.7, substrate phage display with NGS
[12] = RP of matching tetramer, common MMP2-9 selectome, RP above KL threshold
[13] = MMP2, RP of matching P3-P1' tetramer, common set of MMP2-9 selectome, RP above KL threshold
[14] = MMP9, RP of matching P3-P1' tetramer, common set of MMP2-9 selectome

MNML
relative probability (RP) of matching tetramer [1]: 8.39
relative probability (RP) (acc.to MMP2) [1, 3]: 8.39
normalized RP - MMP2 ([1]; unique part of MMP2 selectome): 0.2297
relative probability (RP) (acc.to MMP9) [2, 4]: 0.4
normalized RP - MMP9 ([2]; unique part of MMP2 selectome): 0.007637

MRPVGH
relative probability (RP) [1, 5]: 23.4937
relative probability (RP) [2, 6]: 20.8057

MSAF
MMP2 relative probability (RP) [1]: 20.9521
Relative probability (RP) rank [1, 7]: 1585
relative probability (RP) [1, 7]: 20.95
corresponding MMP9 relative probability (RP) [2]: 1.271

MSPANI
relative probability (RP) [1, 5]: 33.5547
relative probability (RP) [2, 6]: 46.3162

NAQL
relative probability (RP) of matching tetramer [1]: 9.69
relative probability (RP) (acc.to MMP2) [1, 3]: 9.69
normalized RP - MMP2 ([1]; unique part of MMP2 selectome): 0.2653
relative probability (RP) (acc.to MMP9) [2, 4]: 0
normalized RP - MMP9 ([2]; unique part of MMP2 selectome): 0

NEGL
relative probability (RP) (acc.to MMP2) [1, 8]: 0.16
relative probability (RP) (acc.to MMP9) [2, 9]: 0

NPMPIR
relative probability (RP) [1, 5]: 26.0717
relative probability (RP) [2, 6]: 45.0822

NPQNIR
relative probability (RP) [1, 5]: 27.128
relative probability (RP) [2, 6]: 44.0295

NRGF
relative probability (RP) of matching tetramer [1]: 6.81
relative probability (RP) (acc.to MMP2) [1, 3]: 6.81
normalized RP - MMP2 ([1]; unique part of MMP2 selectome): 0.1865
relative probability (RP) (acc.to MMP9) [2, 4]: 0
normalized RP - MMP9 ([2]; unique part of MMP2 selectome): 0

NRPNNL
relative probability (RP) [1, 5]: 27.0562
relative probability (RP) [2, 6]: 38.7188

NVARPM
relative probability (RP) [1, 5]: 21.8664
relative probability (RP) [2, 6]: 34.8794

PAAV
relative probability (RP) (acc.to MMP2) [1, 10]: 30.72
relative probability (RP) [2, 11]: 36.05
relative probability (RP) (acc.to MMP9) [2, 12]: 36.05

PADF
relative probability (RP) (acc.to MMP2) [1, 13]: 20.44
relative probability (RP) of matching tetramer [1]: 20.44
relative probability (RP) (acc.to MMP9) [2, 14]: 12.85

PAGE
relative probability (RP) (acc.to MMP2) [1, 8]: 0.05
relative probability (RP) (acc.to MMP9) [2, 9]: 0.06

PAGVKA
relative probability (RP) [1, 5]: 28.6381
relative probability (RP) [2, 6]: 31.0803

PANA
relative probability (RP) of matching tetramer [1]: 17.73
relative probability (RP) (acc.to MMP2) [1, 3]: 17.73
normalized RP - MMP2 ([1]; unique part of MMP2 selectome): 0.4855
relative probability (RP) (acc.to MMP9) [2, 4]: 2.68
normalized RP - MMP9 ([2]; unique part of MMP2 selectome): 0.05116

PAPNSL
relative probability (RP) [1, 5]: 24.6338
relative probability (RP) [2, 6]: 34.9686

PAQLHV
relative probability (RP) [1, 5]: 32.8467
relative probability (RP) [2, 6]: 43.1805

PAVM
MMP2 relative probability (RP) [1]: 17.6491
Relative probability (RP) rank [1, 7]: 2339
relative probability (RP) [1, 7]: 17.65
corresponding MMP9 relative probability (RP) [2]: 4.1214

PDAL
relative probability (RP) (acc.to MMP2) [1, 10]: 7.73
relative probability (RP) [2, 11]: 29.54
relative probability (RP) (acc.to MMP9) [2, 12]: 29.54

PDGL
relative probability (RP) (acc.to MMP2) [1, 10]: 6.23
relative probability (RP) [2, 11]: 23.13
relative probability (RP) (acc.to MMP9) [2, 12]: 23.13

PEAI
relative probability (RP) (acc.to MMP2) [1, 8]: 22.52
relative probability (RP) (acc.to MMP9) [2, 9]: 36.36

PEAQ
corresponding MMP2 relative probability (RP) ([1]; MMP9 tetramers from unique substrates, RP of same tetramer for MMP2): 6.464
MMP9 relative probability (RP) ([2]; MMP9 tetramers from unique substrates, unrounded values): 2.403

PEGL
relative probability (RP) (acc.to MMP2) [1, 8]: 29.5
relative probability (RP) (acc.to MMP9) [2, 9]: 39.41

PEGLQG
relative probability (RP) [1, 5]: 29.5031
relative probability (RP) [2, 6]: 39.4116

PENF
relative probability (RP) (acc.to MMP2) [1, 8]: 16
relative probability (RP) (acc.to MMP9) [2, 9]: 20.05
relative probability (RP) ([2]; tetramer annotation of MMP-9 cleavage sites in physiologic substrates from MEROPS): 20.05

PEPAAL
relative probability (RP) [1, 5]: 35.8015
relative probability (RP) [2, 6]: 47.6262

PEQL
relative probability (RP) (acc.to MMP2) [1, 13]: 12.46
relative probability (RP) of matching tetramer [1]: 12.46
relative probability (RP) (acc.to MMP2) [1, 10]: 12.46
relative probability (RP) (acc.to MMP9) [2, 14]: 23.26
relative probability (RP) [2, 11]: 23.26
relative probability (RP) (acc.to MMP9) [2, 12]: 23.26

PESW
relative probability (RP) of matching tetramer [1]: 4.73
relative probability (RP) (acc.to MMP2) [1, 3]: 4.73
normalized RP - MMP2 ([1]; unique part of MMP2 selectome): 0.1295
relative probability (RP) (acc.to MMP9) [2, 4]: 1.77
normalized RP - MMP9 ([2]; unique part of MMP2 selectome): 0.03379
